Tests used:
Assay in all cases: relative viability (nuclei count vs DMSO), 5 days (fraction); higher = more cells survive
[1] = test system: BEN
How it was run: (§1)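 For relative viability, nuclei counts in treated wells were divided by those in vehicle wells. Lung cancer cell lines had been pin-tool dosed in 1536-well plates the day after seeding and cultured for 5 days, then fixed and stained in one step (final 0.05% Triton X-100, 1% formaldehyde, 1 ug/ml Hoechst) and imaged at 4×. Doses were one drug alone or a fixed anchor-drug dose plus five library-drug doses (not always all listed) in √10 steps, and values are duplicate-plate medians.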

[2] = test system: ChaGo-K-1
How it was run: as §1

[3] = test system: H3255
How it was run: as §1

[4] = test system: HCC-15
How it was run: as §1

[5] = test system: HCC-78
How it was run: as §1

[6] = test system: LC-2-ad
How it was run: as §1

[7] = test system: LCLC-97TM1
How it was run: as §1

[8] = test system: LK-2
How it was run: as §1

[9] = test system: LU99A
How it was run: as §1

[10] = test system: LXF-289
How it was run: as §1

[11] = test system: NCI-H1651
How it was run: as §1

[12] = test system: NCI-H1666
How it was run: as §1

[13] = test system: NCI-H1944
How it was run: as §1

[14] = test system: NCI-H2087
How it was run: as §1

[15] = test system: NCI-H2342
How it was run: as §1

[16] = test system: NCI-H322M
How it was run: as §1

[17] = test system: NCI-H358
How it was run: as §1

[18] = test system: NCI-H596
How it was run: as §1

[19] = test system: NCI-H650
How it was run: as §1

[20] = test system: NCI-H661
How it was run: as §1

[21] = test system: NCI-H838
How it was run: as §1

[22] = test system: PC-3 [JPC-3]
How it was run: as §1

[23] = test system: SK-MES-1
How it was run: as §1

[24] = test system: UMC-11
How it was run: as §1

## C[C@@H]1CN(CC(=O)Nc2ccc3c(c2)Cc2cccc(-c4cc(=O)cc(N5CCOCC5)o4)c2S3)C[C@H](C)O1 + Nc1nc2[nH]cc(CCc3ccc(C(=O)N[C@@H](CCC(=O)O)C(=O)O)cc3)c2c(=O)[nH]1 [Pemetrexed] (partner 0.2 µM)
[1]; first compound 0.04 µM
  relative viability: 0.633
[1]; first compound 0.1265 µM
  relative viability: 0.713
[1]; first compound 0.4 µM
  relative viability: 0.749
[1]; first compound 4 µM
  relative viability: 0.648
[2]; first compound 0.04 µM
  relative viability: 0.24
[2]; first compound 0.1265 µM
  relative viability: 0.245
[2]; first compound 0.4 µM
  relative viability: 0.252
[2]; first compound 4 µM
  relative viability: 0.226
[3]; first compound 0.04 µM
  relative viability: 0.539
[3]; first compound 0.1265 µM
  relative viability: 0.522
[3]; first compound 0.4 µM
  relative viability: 0.482
[3]; first compound 4 µM
  relative viability: 0.489
[4]; first compound 0.04 µM
  relative viability: 0.212
[4]; first compound 0.1265 µM
  relative viability: 0.203
[4]; first compound 0.4 µM
  relative viability: 0.224
[4]; first compound 4 µM
  relative viability: 0.212
[5]; first compound 0.04 µM
  relative viability: 0.809
[5]; first compound 0.1265 µM
  relative viability: 0.84
[5]; first compound 0.4 µM
  relative viability: 0.889
[5]; first compound 4 µM
  relative viability: 0.917
[6]; first compound 0.04 µM
  relative viability: 0.272
[6]; first compound 0.1265 µM
  relative viability: 0.248
[6]; first compound 0.4 µM
  relative viability: 0.291
[6]; first compound 4 µM
  relative viability: 0.249
[7]; first compound 0.1265 µM
  relative viability: 0.192
[7]; first compound 0.4 µM
  relative viability: 0.183
[7]; first compound 4 µM
  relative viability: 0.17
[8]; first compound 0.04 µM
  relative viability: 0.218
[8]; first compound 0.1265 µM
  relative viability: 0.288
[8]; first compound 0.4 µM
  relative viability: 0.237
[8]; first compound 4 µM
  relative viability: 0.217
[9]; first compound 0.04 µM
  relative viability: 0.184
[9]; first compound 0.1265 µM
  relative viability: 0.15
[9]; first compound 0.4 µM
  relative viability: 0.21
[9]; first compound 4 µM
  relative viability: 0.222
[10]; first compound 0.04 µM
  relative viability: 0.884
[10]; first compound 0.1265 µM
  relative viability: 0.99
[10]; first compound 0.4 µM
  relative viability: 0.89
[10]; first compound 4 µM
  relative viability: 0.818
[11]; first compound 0.04 µM
  relative viability: 0.549
[11]; first compound 0.1265 µM
  relative viability: 0.565
[11]; first compound 0.4 µM
  relative viability: 0.569
[11]; first compound 4 µM
  relative viability: 0.52
[12]; first compound 0.04 µM
  relative viability: 0.905
[12]; first compound 0.1265 µM
  relative viability: 0.837
[12]; first compound 0.4 µM
  relative viability: 0.845
[12]; first compound 4 µM
  relative viability: 0.843
[13]; first compound 0.1265 µM
  relative viability: 0.819
[13]; first compound 0.4 µM
  relative viability: 0.642
[13]; first compound 4 µM
  relative viability: 0.616
[14]; first compound 0.04 µM
  relative viability: 0.676
[14]; first compound 0.1265 µM
  relative viability: 0.668
[14]; first compound 0.4 µM
  relative viability: 0.677
[14]; first compound 4 µM
  relative viability: 0.621
[15]; first compound 0.04 µM
  relative viability: 0.745
[15]; first compound 0.1265 µM
  relative viability: 0.777
[15]; first compound 0.4 µM
  relative viability: 0.767
[15]; first compound 4 µM
  relative viability: 0.729
[16]; first compound 0.04 µM
  relative viability: 0.597
[16]; first compound 0.1265 µM
  relative viability: 0.607
[16]; first compound 0.4 µM
  relative viability: 0.649
[16]; first compound 4 µM
  relative viability: 0.657
[17]; first compound 0.04 µM
  relative viability: 0.179
[17]; first compound 0.1265 µM
  relative viability: 0.154
[17]; first compound 0.4 µM
  relative viability: 0.162
[17]; first compound 4 µM
  relative viability: 0.157
[18]; first compound 0.04 µM
  relative viability: 0.548
[18]; first compound 0.1265 µM
  relative viability: 0.535
[18]; first compound 0.4 µM
  relative viability: 0.429
[18]; first compound 4 µM
  relative viability: 0.481
[19]; first compound 0.04 µM
  relative viability: 0.925
[19]; first compound 0.1265 µM
  relative viability: 0.866
[19]; first compound 0.4 µM
  relative viability: 0.943
[19]; first compound 4 µM
  relative viability: 0.812
[20]; first compound 0.04 µM
  relative viability: 0.969
[20]; first compound 0.1265 µM
  relative viability: 0.904
[20]; first compound 0.4 µM
  relative viability: 0.899
[20]; first compound 4 µM
  relative viability: 0.894
[21]; first compound 0.04 µM
  relative viability: 0.262
[21]; first compound 0.1265 µM
  relative viability: 0.244
[21]; first compound 0.4 µM
  relative viability: 0.243
[21]; first compound 4 µM
  relative viability: 0.236
[22]; first compound 0.04 µM
  relative viability: 1.04
[22]; first compound 0.1265 µM
  relative viability: 1.09
[22]; first compound 0.4 µM
  relative viability: 1.21
[22]; first compound 4 µM
  relative viability: 0.943
[23]; first compound 0.04 µM
  relative viability: 1.01
[23]; first compound 0.1265 µM
  relative viability: 0.9
[23]; first compound 0.4 µM
  relative viability: 0.808
[23]; first compound 4 µM
  relative viability: 0.808
[24]; first compound 0.04 µM
  relative viability: 0.757
[24]; first compound 0.1265 µM
  relative viability: 0.764
[24]; first compound 0.4 µM
  relative viability: 0.767
[24]; first compound 4 µM
  relative viability: 0.674

— the supplement of paper PMC10307832
